“Also recorded” adds a separate entry of the source. Like-named read-outs stand apart in the source and are kept apart here.
How the values were obtained:
Type in all cases: cell-based
hnRNP-K = experiment: Immunofluorescence of hnRNP-K cellular location in iPSC-derived macrophages; settings: iPSC-derived (primary) macrophages, Doxorubicin-treated, no HIV
Experimental: (§1) For each experiment, Ghost(3) cells or IPSC-derived primary macrophages were infected or treated with 500 nM Doxorubicin on coverslips, fixed for 10 mins in fresh 4% paraformaldehyde at room temperature, then washed 3 times in PBS and permeabilised for 10 mins in ice-cold methanol at […]. Coverslips were washed once in PBS and incubated in blocking buffer (5% goat serum, 0.3% TritonX100 in PBS) for 60 mins at room temperature. Cells were incubated in primary antibody solution (1% BSA, 0.3% Triton X100 in PBS) overnight at 4° C. Double strand breaks were detected using rabbit polyclonal anti-phosphohistone H2A.X Ser139 (Cell Signaling). Activated ATM was detected using rabbit monoclonal anti-phosphoATM Ser1981 (Cell Signaling). The ability of p53 to regulate apoptosis was detected using rabbit polyclonal antiphosphop53 Ser46 (Cell Signaling). Viral p24 was detected using mouse monoclonal anti-HIV1p24 (AIDS Research and Reference Reagent Program, Division of AIDS, NIAID, NIH). HuR was detected using mouse monoclonal anti-HuR 3A2 (Santa Cruz Biotechnology). hnRNPK was detected using goat polyclonal anti-hnRNPK P20 (Santa Cruz Biotechnology). Coverslips were washed 3 times (5 mins each on an orbital shaker) with wash buffer (0.05% Tween20 in PBS), followed by incubation with secondary antibodies conjugated to either Atto550 or Atto565 or Atto647 for 60 mins at room temperature. […]

p53pSer46 = experiment: Immunofluorescence staining of p53pSer46 apoptotic mark; settings: Ghost(3) cells, Doxorubicin 500 nM, no HIV
Experimental: as §1

Ghost(3) cells = tested on: Ghost(3) cells
Experimental: Apoptosis was measured in Ghost(3) cells 30 hours post-infection or drug treatment using the NucView™ 488 Caspase3 Assay Kit (Biotium) in a 96 well format. Data was analysed in MATLAB using a probabilistic region method to measure cell attachment and expressed as percentage cell survival. […] An average of 3000 cells per condition were analysed with the exception of cells treated with Doxorubicin followed by HIV-infection (FIG. 3), cells transfected with lincRNAp21 overexpression constructs followed by Doxorubicin treatment, and cells transfected with full-length lincRNAp21, infected with HIV1 and treated with Nutlin3 (FIG. 25). These latter conditions ( ? ) yielded too few attached cells (<20) at 30 hours for similar analysis.
Apoptosis was measured in Ghost(3) cells 30 hours post-infection or drug treatment using the NucView™ 488 Caspase-3 Assay Kit (Biotium) in a 96 well format. Data was analysed in MATLAB using a probabilistic region method to measure cell attachment and expressed as percentage cell survival. […] An average of 3000 cells per condition were analysed with the exception of cells treated with Doxorubicin followed by HIV-infection (FIG. 27), cells transfected with lincRNA-p21 overexpression constructs followed by Doxorubicin treatment (FIG. 36), and cells transfected with full-length lincRNA-p21, infected with HIV-1 and treated with Nutlin3 (FIG. 45). These latter conditions ( ? ) yielded too few attached cells (<20) at 30 hours for similar analysis.

COc1cccc2c1C(=O)c1c(O)c3c(c(O)c1C2=O)C[C@@](O)(C(=O)CO)C[C@@H]3O[C@H]1C[C@H](N)[C@H](O)[C@H](C)O1 [Doxorubicin]
cellular location of hnRNP-K (hnRNP-K): nuclear hnRNP-K within 8 hours; also recorded: nuclear hnRNPK within 8 hours
phosphorylation of p53 at Ser46 (p53pSer46): phosphorylation of both ATMpSer1981 and p53pSer46 in the nucleus within 8 hours; also recorded: Activated p53 dimers are detected
percentage cell survival (Ghost(3) cells; Ghost(3) cells infected with HIV-1 24 hours before the same duration of Doxorubicin treatment): 60%
apoptosis (Ghost(3) cells; Ghost(3) cells infected with HIV-1 24 hours prior to Doxorubicin treatment): do not undergo apoptosis
apoptosis (Ghost(3) cells; Ghost(3) cells that received Doxorubicin prior to HIV-1 infection): underwent apoptosis; also recorded: do undergo apoptosis
percentage cell survival (Ghost(3) cells; Ghost(3) cells, Doxorubicin only (lethal dose), no HIV): 32%
apoptosis (Ghost(3) cells; cells concurrently infected and treated with Maraviroc, Tenofovir or Raltegravir, Doxorubicin added 24 hours later): the cells underwent apoptosis
apoptosis (Ghost(3) cells; uninfected Ghost(3) cells, lethal dose of Doxorubicin (500 nM)): apoptosis at 48 hours; also recorded: by 24 hours, cells were apoptotic; also recorded: followed by apoptosis

Reference: patent publication US10143691B2, “Pathogenic control of apoptosis” (CSIR, priority 2014, dated 2018)
